# Experimental data as given in patent US9963445B2, “Chemical compounds” (SYNGENTA PARTICIPATIONS AG, priority 2013, dated 2018).
# System: Setaria faberi
# Assay: Pre-emergence herbicidal activity, glasshouse pot test
# Format: in vivo
# Conditions: pre-emergence spray, rate 1000 g/ha, evaluated after 13 days, scale 0-5
# Summary of the method: (§1)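 Pots of seeded soil were sprayed one day after sowing (pre-emergence) with compound formulated in acetone/water 50:50 with 0.5% Tween 20. Plants were grown in a glasshouse at 24/16 °C day/night, 14 h light, 65% humidity. Damage was scored after 13 days on a 0–5 scale (5 = total damage).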
row,SMILES,"SETFA damage score, application pre-emergence"
1,CC1=C(Cl)C(=O)N(c2ccc(C)cn2)C1O (stereo not drawn) [AF69],4
2,CC1=C(Cl)C(=O)N(c2ccc(C(F)(F)F)cn2)C1O (stereo not drawn) [AF70],5
3,CC1=C(Br)C(=O)N(c2ccc(C(F)(F)F)cn2)C1O (stereo not drawn) [AG2],4
4,CCOC(=O)c1cnc(N2C(=O)C(OC)=C(C)C2O)nc1C(F)(F)F (stereo not drawn) [DI2],5

# System: Abutilon theophrasti
# Assay: as above
# Format: in vivo
# Conditions: pre-emergence spray, rate 1000 g/ha, evaluated after 13 days, scale 0-5
# Summary of the method: as §1
row,SMILES,"ABUTH damage score, application pre-emergence"
1,CCOC(=O)c1cnc(N2C(=O)C(OC)=C(C)C2O)nc1C(F)(F)F (stereo not drawn) [DI2],5

# System: zea mays
# Assay: as above
# Format: in vivo
# Conditions: pre-emergence spray, rate 1000 g/ha, evaluated after 13 days, scale 0-5
# Summary of the method: as §1
row,SMILES,"ZEAMX damage score, application pre-emergence"
1,CC1=C(Cl)C(=O)N(c2ccc(C)cn2)C1O (stereo not drawn) [AF69],1
2,CC1=C(Cl)C(=O)N(c2ccc(C(F)(F)F)cn2)C1O (stereo not drawn) [AF70],0
3,CC1=C(Br)C(=O)N(c2ccc(C(F)(F)F)cn2)C1O (stereo not drawn) [AG2],0
4,CCOC(=O)c1cnc(N2C(=O)C(OC)=C(C)C2O)nc1C(F)(F)F (stereo not drawn) [DI2],3

# System: Amaranthus retroflexus
# Assay: as above
# Format: in vivo
# Conditions: pre-emergence spray, rate 1000 g/ha, evaluated after 13 days, scale 0-5
# Summary of the method: as §1
row,SMILES,"AMARE damage score, application pre-emergence"
1,CC1=C(Cl)C(=O)N(c2ccc(C)cn2)C1O (stereo not drawn) [AF69],5
2,CC1=C(Cl)C(=O)N(c2ccc(C(F)(F)F)cn2)C1O (stereo not drawn) [AF70],5
3,CC1=C(Br)C(=O)N(c2ccc(C(F)(F)F)cn2)C1O (stereo not drawn) [AG2],5
4,CCOC(=O)c1cnc(N2C(=O)C(OC)=C(C)C2O)nc1C(F)(F)F (stereo not drawn) [DI2],5

# System: Echinochloa crus-galli
# Assay: as above
# Format: in vivo
# Conditions: pre-emergence spray, rate 1000 g/ha, evaluated after 13 days, scale 0-5
# Summary of the method: as §1
row,SMILES,"ECHCG damage score, application pre-emergence"
1,CC1=C(Cl)C(=O)N(c2ccc(C)cn2)C1O (stereo not drawn) [AF69],4
2,CC1=C(Cl)C(=O)N(c2ccc(C(F)(F)F)cn2)C1O (stereo not drawn) [AF70],3
3,CC1=C(Br)C(=O)N(c2ccc(C(F)(F)F)cn2)C1O (stereo not drawn) [AG2],1
4,CCOC(=O)c1cnc(N2C(=O)C(OC)=C(C)C2O)nc1C(F)(F)F (stereo not drawn) [DI2],5

# System: Solanum nigrum
# Assay: as above
# Format: in vivo
# Conditions: pre-emergence spray, rate 1000 g/ha, evaluated after 13 days, scale 0-5
# Summary of the method: as §1
row,SMILES,"SOLNI damage score, application pre-emergence"
1,CC1=C(Cl)C(=O)N(c2ccc(C)cn2)C1O (stereo not drawn) [AF69],5
2,CC1=C(Cl)C(=O)N(c2ccc(C(F)(F)F)cn2)C1O (stereo not drawn) [AF70],5
3,CC1=C(Br)C(=O)N(c2ccc(C(F)(F)F)cn2)C1O (stereo not drawn) [AG2],4

# System: Alopecurus myosuroides
# Assay: as above
# Format: in vivo
# Conditions: pre-emergence spray, rate 1000 g/ha, evaluated after 13 days, scale 0-5
# Summary of the method: as §1
row,SMILES,"ALOMY damage score, application pre-emergence"
1,CC1=C(Cl)C(=O)N(c2ccc(C)cn2)C1O (stereo not drawn) [AF69],3
2,CC1=C(Cl)C(=O)N(c2ccc(C(F)(F)F)cn2)C1O (stereo not drawn) [AF70],3
3,CC1=C(Br)C(=O)N(c2ccc(C(F)(F)F)cn2)C1O (stereo not drawn) [AG2],3
4,CCOC(=O)c1cnc(N2C(=O)C(OC)=C(C)C2O)nc1C(F)(F)F (stereo not drawn) [DI2],4

# System: Solanum nigrum
# Assay: Post-emergence herbicidal activity, glasshouse pot test
# Format: in vivo
# Conditions: Application post-emergence, rate 1000 g/ha, evaluated after 13 days
# Experimental: Seeds of a variety of test species were sown in standard soil in pots. After 8 days cultivation (post-emergence) under controlled conditions in a glasshouse (at 24/16° C., day/night; 14 hours light; 65% humidity), the plants were sprayed with an aqueous spray solution derived from the formulation of the technical active ingredient in acetone/water (50:50) solution containing 0.5% Tween 20 (polyoxyethelyene sorbitan monolaurate, CAS RN 9005-64-5). The test plants were then grown in a glasshouse under controlled conditions (at 24/16° C., day/night; 14 hours light; 65% humidity) and watered twice daily. After 13 days, the test was evaluated (5=total damage to plant; 0=no damage to plant).
# ABUTH=Abutilon theophrasti; SOLNI=Solanum nigrum; AMARE=Amaranthus retroflexus; SETFA=Setaria faberi; ALOMY=Alopecurus myosuroides; ECHCG=Echinochloa crus-galli, ZEAMX=zea mays.
row,SMILES,SOLNI herbicidal damage score
1,CC1=C(Cl)C(=O)N(c2ccc(C)cn2)C1O (stereo not drawn) [AF69],5
2,CC1=C(Cl)C(=O)N(c2ccc(C(F)(F)F)cn2)C1O (stereo not drawn) [AF70],5
3,CC1=C(Br)C(=O)N(c2ccc(C(F)(F)F)cn2)C1O (stereo not drawn) [AG2],5

# System: Setaria faberi
# Assay: as above
# Format: in vivo
# Design: key: 0 = no damage to plant, 5 = total damage to plant
# Conditions: Application post-emergence, rate 1000 g/ha, evaluated after 13 days
# Summary of the method: (§2)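 Damage rated 0 (none) to 5 (total) 13 days after spraying. Plants were treated post-emergence at 8 days after sowing, using an acetone/water (50:50) formulation with 0.5% Tween 20 diluted to an aqueous spray.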
row,SMILES,SETFA herbicidal damage score
1,CC1=C(Cl)C(=O)N(c2ccc(C)cn2)C1O (stereo not drawn) [AF69],5
2,CC1=C(Cl)C(=O)N(c2ccc(C(F)(F)F)cn2)C1O (stereo not drawn) [AF70],5
3,CC1=C(Br)C(=O)N(c2ccc(C(F)(F)F)cn2)C1O (stereo not drawn) [AG2],5
4,CCOC(=O)c1cnc(N2C(=O)C(OC)=C(C)C2O)nc1C(F)(F)F (stereo not drawn) [DI2],5

# System: Abutilon theophrasti
# Assay: as above
# Format: in vivo
# Design: key: 0 = no damage to plant, 5 = total damage to plant
# Conditions: Application post-emergence, rate 1000 g/ha, evaluated after 13 days
# Summary of the method: as §2
row,SMILES,ABUTH herbicidal damage score
1,CCOC(=O)c1cnc(N2C(=O)C(OC)=C(C)C2O)nc1C(F)(F)F (stereo not drawn) [DI2],5

# System: zea mays
# Assay: as above
# Format: in vivo
# Design: key: 0 = no damage to plant, 5 = total damage to plant
# Conditions: Application post-emergence, rate 1000 g/ha, evaluated after 13 days
# Summary of the method: as §2
row,SMILES,ZEAMX herbicidal damage score
1,CC1=C(Cl)C(=O)N(c2ccc(C)cn2)C1O (stereo not drawn) [AF69],3
2,CC1=C(Cl)C(=O)N(c2ccc(C(F)(F)F)cn2)C1O (stereo not drawn) [AF70],2
3,CC1=C(Br)C(=O)N(c2ccc(C(F)(F)F)cn2)C1O (stereo not drawn) [AG2],2
4,CCOC(=O)c1cnc(N2C(=O)C(OC)=C(C)C2O)nc1C(F)(F)F (stereo not drawn) [DI2],4

# System: Amaranthus retroflexus
# Assay: as above
# Format: in vivo
# Design: key: 0 = no damage to plant, 5 = total damage to plant
# Conditions: Application post-emergence, rate 1000 g/ha, evaluated after 13 days
# Summary of the method: as §2
row,SMILES,AMARE herbicidal damage score
1,CC1=C(Cl)C(=O)N(c2ccc(C)cn2)C1O (stereo not drawn) [AF69],5
2,CC1=C(Cl)C(=O)N(c2ccc(C(F)(F)F)cn2)C1O (stereo not drawn) [AF70],5
3,CC1=C(Br)C(=O)N(c2ccc(C(F)(F)F)cn2)C1O (stereo not drawn) [AG2],5
4,CCOC(=O)c1cnc(N2C(=O)C(OC)=C(C)C2O)nc1C(F)(F)F (stereo not drawn) [DI2],5

# System: Echinochloa crus-galli
# Assay: as above
# Format: in vivo
# Design: key: 0 = no damage to plant, 5 = total damage to plant
# Conditions: Application post-emergence, rate 1000 g/ha, evaluated after 13 days
# Summary of the method: as §2
row,SMILES,ECHCG herbicidal damage score
1,CC1=C(Cl)C(=O)N(c2ccc(C)cn2)C1O (stereo not drawn) [AF69],5
2,CC1=C(Cl)C(=O)N(c2ccc(C(F)(F)F)cn2)C1O (stereo not drawn) [AF70],5
3,CC1=C(Br)C(=O)N(c2ccc(C(F)(F)F)cn2)C1O (stereo not drawn) [AG2],5
4,CCOC(=O)c1cnc(N2C(=O)C(OC)=C(C)C2O)nc1C(F)(F)F (stereo not drawn) [DI2],5

# System: Alopecurus myosuroides
# Assay: as above
# Format: in vivo
# Design: key: 0 = no damage to plant, 5 = total damage to plant
# Conditions: Application post-emergence, rate 1000 g/ha, evaluated after 13 days
# Summary of the method: as §2
row,SMILES,ALOMY herbicidal damage score
1,CC1=C(Cl)C(=O)N(c2ccc(C)cn2)C1O (stereo not drawn) [AF69],5
2,CC1=C(Cl)C(=O)N(c2ccc(C(F)(F)F)cn2)C1O (stereo not drawn) [AF70],5
3,CC1=C(Br)C(=O)N(c2ccc(C(F)(F)F)cn2)C1O (stereo not drawn) [AG2],4
4,CCOC(=O)c1cnc(N2C(=O)C(OC)=C(C)C2O)nc1C(F)(F)F (stereo not drawn) [DI2],4
